This assay relates to high-risk stage II and III early breast cancer. Briefly: I-SPY2 neoadjuvant platform trial: pCR rate by arm within receptor or response-predictive subtype. The assay is classed as in vivo, women. The text has this:
I-SPY2 is an ongoing, open-label, adaptive, randomized phase II, multicenter trial of neoadjuvant therapy for early-stage breast cancer (NCT01042379; IND 105139). It is a platform trial evaluating multiple investigational arms in parallel against a common standard of care control arm. The primary endpoint is pCR (ypT0/is, ypN0), defined as the absence of invasive cancer in the breast and regional nodes at the time of surgery. As I-SPY2 is modified intent-to-treat, patients receiving any dose of study therapy are considered evaluable; those who switch to non-protocol therapy, progress, forgo surgery, or withdraw are deemed ‘non-pCR’. Secondary endpoints include residual cancer burden (RCB) and event-free and distant relapse-free survival (EFS and DRFS) (Symmans et al., 2007)
Assessments at screening establish eligibility and classify participants into subtypes defined by hormone receptor (HR) status, HER2, and 70-gene signature (MammaPrint®) status (Cardoso et al., 2016; Piccart et al., 2021). Adaptive randomization in I-SPY2 preferentially assigns patients to trial arms according to continuously updated Bayesian probabilities of pCR rates within each biomarker signature; 20% of patients are randomly assigned to the control arm (Berry, 2011). […] An arm can be dropped for futility if the predicted probability of success in a future 300-patient, 1:1 randomized, phase 3 trial drops below 10%, or graduate for efficacy if the probability of success reaches 85% or greater in any biomarker signature. The clinical control arm for the efficacy analysis uses patients randomized throughout the entire trial. […] During the design of each new experimental arm the investigators together with the pharmaceutical sponsor decide in which of the 10 a priori defined biomarker signatures the drug will be tested. Upon entry to the trial, participants are dichotomized into hormone receptor (HR) negative versus positive, HER2 positive versus negative, and MammaPrint High1 [MP1] versus High2 [MP2] status.
This correlative study involved 987 women with high-risk stage II and III early breast cancer who were enrolled in 10 arms of I-SPY2: the first 9 experimental arms that completed evaluation and the control arm as shown in the schema of FIG. 1A. […] For HER2+ patients, N was administered instead of H, whereas M and trebananib were administered in addition to H. Dose reductions and toxicity management were specified in the protocol. Adverse events were collected according to the NCI Common Terminology Criteria for Adverse Events (CTCAE) version 4.0. After completion of AC, patients underwent lumpectomy or mastectomy and nodal sampling, with choice of surgery at the discretion of the treating surgeon. Detailed descriptions of the design, eligibility, and efficacy of these 9 experimental arms of the I-SPY2 trial have been reported previously (Chien et al., 2019; Clark et al., 2021; Nanda et al., 2020; Park et al., 2016; Pusztai et al., 2021; Rugo et al., 2016).
A major goal of a response-predictive schema is to increase the pCR rate in the population and to maximize the probability of pCR for an individual patient (R2).

The source of these data is US20240060138A1, “BREAST CANCER-RESPONSE PREDICTION SUBTYPES” (The Regents of The University of California, priority 2022, published 2024).

For `CCOc1cc2ncc(C#N)c(Nc3ccc(OCc4ccccn4)c(Cl)c3)c2cc1NC(=O)/C=C/CN(C)C` [N, neratinib], the pCR rate (RPS-7 S6: HER2=0/Immune-/DRD-) is listed as 20%.
In the case of veliparib/carboplatin [VC], the pCR rate (HER2-/Immune-/DRD+ (RPS-5)) is 60%; the pCR rate (RPS-7 S5: HER2=0.or.low/Immune-/DRD+) is 60%; the pCR rate (TN, DRD+ patients) is recorded as 75%; the pCR rate (TN, Immune+/DRD+ class) is 74%; the pCR rate (TN, Immune-/DRD+ class) is recorded as 80%.
As to pertuzumab, the pCR rate (HER2+/BP-Luminal class (RPS-5)) is listed as 8%.
pembrolizumab: the pCR rate runs as follows: (HER2-/Immune+ (RPS-5)) 79%; (HR+HER2- receptor subtype) 30%; (RPS-7 S3: HER2=0.or.low/Immune+) 79%; (TN receptor subtype) 66%; (TN, Immune+ patients) 89%; (TN, Immune+/DRD+ class) 92%. For the same molecule, the pCR rate is 80% (TN, Immune+/DRD- class) and 33% (TN, Immune-/DRD+ class).
Turning to ganitumab, the pCR rate (RPS-7 S4: HR-/HER2low/Immune-/DRD-) is on record as 40%.
With `NC1(c2ccc(-c3nc4ccn5c(=O)[nH]nc5c4cc3-c3ccccc3)cc2)CCC1` [MK2206, 8-[4-(1-aminocyclobutyl)phenyl]-9-phenyl-2H-[1,2,4]triazolo[3,4-f][1,6]naphthyridin-3-one], the pCR rate is reported as 48% (HER2+/BP-HER2 or BP-Basal patients (RPS-5)); 60% (HER2+/BP-Luminal class (RPS-5)); 20% (HER2-/Immune-/DRD- (RPS-5)); 60% (RPS-7 S2: HER2+/BP Luminal); 20% (RPS-7 S6: HER2=0/Immune-/DRD-); 20% (RPS-7 S7: HR+HER2low/Immune-DRD-).
